In ChEMBL document CHEMBL3243923, “Linked Aryl Aryloxypropanolamines as a new class of lipid catabolis agents” (J Med Chem, 1978):
Calls of active or inactive are those of the source. The rule behind the calls is not given here.

Each molecule was assayed on Mus musculus (assay: Antiobesity activity in mouse assessed as reduction in utero fat at 0.04% administered every day through diet for 10 days measured after day 10 relative to control).
Assay type: functional

SMILES | Activity
CC(C)(C)c1cc(/C=C/c2ccccc2)cc(C(C)(C)C)c1OCC(O)CNCc1ccccc1 (configuration not stated) | inactive
CC(C)NCC(O)COc1c(C(C)(C)C)cc(/C=C/c2ccc3ccccc3c2)cc1C(C)(C)C (configuration not stated) | inactive
CC(C)NCC(O)COc1c(C(C)(C)C)cc(S(=O)(=O)c2ccc(Cl)cc2)cc1C(C)(C)C (configuration not stated) | inactive
CC(C)NCC(O)COc1ccc(/C=C/c2ccncc2)cc1 (configuration not stated) | 24%
CC(C)NCC(O)COc1c(C(C)(C)C)cc([S+]([O-])c2ccccc2)cc1C(C)(C)C (configuration not stated) | inactive
CNCC(O)COc1c(C(C)(C)C)cc(/C=C/c2ccccc2)cc1C(C)(C)C.O.O=C(O)C(=O)O (configuration not stated) | 44%
CC(C)NCC(O)COc1c(C(C)(C)C)cc(S(=O)(=O)c2ccccc2)cc1C(C)(C)C (configuration not stated) | inactive
CC(C)NCC(O)COc1c(C(C)(C)C)cc(Sc2ccccc2)cc1C(C)(C)C (configuration not stated) | inactive
CC(C)NCC(O)COc1c(C(C)(C)C)cc(/C=C/c2cccc3ccccc23)cc1C(C)(C)C (configuration not stated) | inactive
COc1ccc(/C=C/c2cc(C(C)(C)C)c(OCC(O)CNC(C)C)c(C(C)(C)C)c2)cc1Br (configuration not stated) | inactive
CC(C)NCC(O)COc1ccc(Sc2ccc(Cl)cc2)cc1 (configuration not stated) | 22%
CN(C)CCCNCC(O)COc1c(C(C)(C)C)cc(/C=C/c2ccccc2)cc1C(C)(C)C.Cl (configuration not stated) | 45%
CC(C)(C)c1cc(/C=C/c2ccccc2)cc(C(C)(C)C)c1OCC(O)CNC1CC1 (configuration not stated) | inactive
CC(C)NCC(O)COc1c(C(C)(C)C)cc(/C=C/c2ccc(Cl)c(Cl)c2)cc1C(C)(C)C (configuration not stated) | inactive
CCCCCCNCC(O)COc1c(C(C)(C)C)cc(/C=C/c2ccccc2)cc1C(C)(C)C (configuration not stated) | inactive
CCCNCC(O)COc1c(C(C)(C)C)cc(/C=C/c2ccccc2)cc1C(C)(C)C (configuration not stated) | inactive
CC(C)NCC(O)COc1c(C(C)(C)C)cc(/C=C/c2ccccc2)cc1C(C)(C)C (configuration not stated) | 39%
